Measurements taken from US11072625B2 (GLYCOMIMETICS, INC., priority 2016, dated 2021).

biological target: T1, recombinant human E-selectin/CD63E Fc Chimera (Homo sapiens, UniProt P16581); test: E-selectin activity, analysis by SPR (Biacore X100); assay type: binding; conditions: Biacore X100, CM5 chip, E-selectin Fc chimera captured on anti-human IgG (Fc) antibody
T1 construct: purchased R & D systems
Experimental: Surface Plasmon Resonance (SPR) measurements were performed on a Biacore X100 instrument (GE Healthcare). A CM5 sensor chip (GE Healthcare) was used for the interaction between E-selectin and GMI compound. Anti-human IgG (Fc) antibody (GE Healthcare) was immobilized onto the chip by amine coupling according to the manufacturer's instructions. In brief, after a 7-min injection (flow rate of 5 μl/min) of 1:1 mixture of N-ethyl-N′-(3-dimethylaminopropyl) carbodiimide hydrochloride and N-hydroxysuccinimide, anti-human IgG (Fc) antibody (25 μg/ml in 10 mM sodium acetate buffer, pH 5.0) was injected using a 6-min injection at 5 μl min. Remaining activated groups were blocked by injecting 1 M ethanolamine/HCl, pH 8.5. The recombinant human E-selectin/CD63E Fc Chimera (50 μg/ml) (R & D systems) was injected into the experimental cell until 6000-7000 RU was captured onto the antibody surface. No recombinant human E-selectin/CD63E was injected into the control cell. Increasing concentrations of GMI compound samples were injected at 30 μl/min into both flow cells and all sensorgrams were recorded against the control. Regeneration of the anti-human IgG (Fc) surface was achieved by injecting 3M magnesium chloride, followed by 50 mM sodium hydroxide. Data were analyzed using Biacore X100 evaluation/BIA evaluation 4.1.1 software (GE Healthcare) and Graphad prism 6 software.

T1 sequence (P16581 with tags, fused parts or gaps limits assumed): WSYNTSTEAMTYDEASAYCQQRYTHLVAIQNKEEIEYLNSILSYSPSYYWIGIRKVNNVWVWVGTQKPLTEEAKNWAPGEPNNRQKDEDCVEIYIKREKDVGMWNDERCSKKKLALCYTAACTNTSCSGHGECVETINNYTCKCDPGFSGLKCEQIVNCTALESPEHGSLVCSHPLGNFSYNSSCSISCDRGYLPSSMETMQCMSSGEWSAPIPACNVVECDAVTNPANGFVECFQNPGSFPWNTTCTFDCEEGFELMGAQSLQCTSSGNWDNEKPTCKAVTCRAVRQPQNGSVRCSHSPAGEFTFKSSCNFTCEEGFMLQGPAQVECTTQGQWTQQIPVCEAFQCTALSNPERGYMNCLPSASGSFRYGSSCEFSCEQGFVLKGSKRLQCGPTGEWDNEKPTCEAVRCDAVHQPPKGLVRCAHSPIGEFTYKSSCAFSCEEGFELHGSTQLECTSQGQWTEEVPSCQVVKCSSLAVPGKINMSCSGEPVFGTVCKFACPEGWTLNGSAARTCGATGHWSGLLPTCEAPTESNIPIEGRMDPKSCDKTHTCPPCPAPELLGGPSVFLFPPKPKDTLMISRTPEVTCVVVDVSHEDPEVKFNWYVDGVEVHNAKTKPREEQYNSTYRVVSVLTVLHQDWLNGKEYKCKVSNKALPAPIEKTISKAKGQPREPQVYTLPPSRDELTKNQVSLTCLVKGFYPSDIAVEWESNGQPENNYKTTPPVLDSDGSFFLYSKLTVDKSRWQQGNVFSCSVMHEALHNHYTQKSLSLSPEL

In order of rising Kd:
1. CCC1CC(C(=O)NCCNC(=O)CCOCCOCCOCCOCCOCCOCCOCCOCCOCCOCCC(=O)NCCNC(=O)C2CC(CC)C(OC3OC(C)C(O)C(O)C3O)C(OC3OC(CO)C(O)C(OC(CC4CCCCC4)C(=O)N4CCC4)C3NC(C)=O)C2)CC(OC2OC(CO)C(O)C(OC(CC3CCCCC3)C(=O)N3CCC3)C2NC(C)=O)C1OC1OC(C)C(O)C(O)C1O (centres unmarked) [Compound 20]  0.8 nM
2. CC[C@H]1C[C@@H](C(=O)NCCNC(=O)NCCNC(=O)[C@@H]2C[C@H](CC)[C@@H](O[C@@H]3O[C@@H](C)[C@@H](O)[C@@H](O)[C@@H]3O)[C@H](O[C@@H]3O[C@H](CO)[C@H](O)[C@H](O[C@@H](CC4CCCCC4)C(=O)N4CCC4)[C@H]3NC(C)=O)C2)C[C@@H](OC2O[C@H](CO)[C@H](O)[C@H](O[C@@H](CC3CCCCC3)C(=O)N3CCC3)[C@H]2NC(C)=O)[C@@H]1OC1O[C@@H](C)[C@@H](O)[C@@H](O)[C@@H]1O (some centres unmarked) [Compound 45]  2.1 nM
3. CCC1CC(C(=O)NCCNC(=O)CCOCCOCCOCCOCCC(=O)NCCNC(=O)C2CC(CC)C(OC3OC(C)C(O)C(O)C3O)C(OC3OC(CO)C(O)C(OC(CC4CCCCC4)C(=O)N4CCC4)C3NC(C)=O)C2)CC(OC2OC(CO)C(O)C(OC(CC3CCCCC3)C(=O)N3CCC3)C2NC(C)=O)C1OC1OC(C)C(O)C(O)C1O (centres unmarked) [Compound 23]  2.8 nM
4. CCC1CC(C(=O)NCCNC(=O)CCOCCOCCC(=O)NCCNC(=O)C2CC(CC)C(OC3OC(C)C(O)C(O)C3O)C(OC3OC(CO)C(O)C(OC(CC4CCCCC4)C(=O)N4CCC4)C3NC(C)=O)C2)CC(OC2OC(CO)C(O)C(OC(CC3CCCCC3)C(=O)N3CCC3)C2NC(C)=O)C1OC1OC(C)C(O)C(O)C1O (centres unmarked) [Compound 25]  3 nM
5. CCC1CC(C(=O)NCCNC(=O)c2cn(CCOCCOCCn3cc(C(=O)NCCNC(=O)C4CC(CC)C(OC5OC(C)C(O)C(O)C5O)C(OC5OC(CO)C(O)C(OC(CC6CCCCC6)C(=O)O)C5NC(C)=O)C4)nn3)nn2)CC(OC2OC(CO)C(O)C(OC(CC3CCCCC3)C(=O)O)C2NC(C)=O)C1OC1OC(C)C(O)C(O)C1O (centres unmarked) [Compound 28]  3.2 nM
6. CC[C@H]1C[C@@H](C(=O)NCCNC(=O)c2cn(CC(=O)NCCNC(=O)[C@@H]3C[C@H](CC)[C@@H](O[C@@H]4O[C@@H](C)[C@@H](O)[C@@H](O)[C@@H]4O)[C@H](O[C@@H]4O[C@H](CO)[C@H](O)[C@H](O[C@@H](CC5CCCCC5)C(=O)O)[C@H]4NC(C)=O)C3)nn2)C[C@@H](OC2O[C@H](CO)[C@H](O)[C@H](O[C@@H](CC3CCCCC3)C(=O)O)[C@H]2NC(C)=O)[C@@H]1OC1O[C@@H](C)[C@@H](O)[C@@H](O)[C@@H]1O (some centres unmarked) [Compound 31]  3.3 nM
7. CCC1CC(C(=O)NCCNC(=O)CCOCCOCCC(=O)NCCNC(=O)C2CC(CC)C(OC3OC(C)C(O)C(O)C3O)C(OC3OC(CO)C(O)C(OC(CC4CCCCC4)C(=O)O)C3NC(C)=O)C2)CC(OC2OC(CO)C(O)C(OC(CC3CCCCC3)C(=O)O)C2NC(C)=O)C1OC1OC(C)C(O)C(O)C1O (centres unmarked) [Compound 18]  3.5 nM
8. CCC1CC(C(=O)NCCNC(=O)c2cn(CCOCCC(=O)NCCCCC(NC(=O)CCOCCn3cc(C(=O)NCCNC(=O)C4CC(CC)C(OC5OC(C)C(O)C(O)C5O)C(OC5OC(CO)C(O)C(OC(CC6CCCCC6)C(=O)O)C5NC(C)=O)C4)nn3)C(=O)OCc3ccccc3)nn2)CC(OC2OC(CO)C(O)C(OC(CC3CCCCC3)C(=O)O)C2NC(C)=O)C1OC1OC(C)C(O)C(O)C1O (centres unmarked) [Compound 37]  3.9 nM
9. CCC1CC(C(=O)NCCNC(=O)CCOCCOCCOCCOCCOCCOCCOCCOCCOCCOCCOCCOCCOCCOCCOCCOCCOCCOCCOCCOCCOCCC(=O)NCCNC(=O)C2CC(CC)C(OC3OC(C)C(O)C(O)C3O)C(OC3OC(CO)C(O)C(OC(CC4CCCCC4)C(=O)O)C3NC(C)=O)C2)CC(OC2OC(CO)C(O)C(OC(CC3CCCCC3)C(=O)O)C2NC(C)=O)C1OC1OC(C)C(O)C(O)C1O (centres unmarked) [Compound 13]  4.7 nM
10. CCC1CC(C(=O)NCCNC(=O)CCOCCOCCOCCOCCC(=O)NCCNC(=O)C2CC(CC)C(OC3OC(C)C(O)C(O)C3O)C(OC3OC(CO)C(O)C(OC(CC4CCCCC4)C(=O)O)C3NC(C)=O)C2)CC(OC2OC(CO)C(O)C(OC(CC3CCCCC3)C(=O)O)C2NC(C)=O)C1OC1OC(C)C(O)C(O)C1O (centres unmarked) [Compound 17]  5.1 nM
11. CCC1CC(C(=O)NCCNC(=O)CCOCCOCCOCCOCCOCCOCCOCCOCCOCCOCCC(=O)NCCNC(=O)C2CC(CC)C(OC3OC(C)C(O)C(O)C3O)C(OC3OC(CO)C(O)C(OC(CC4CCCCC4)C(=O)O)C3NC(C)=O)C2)CC(OC2OC(CO)C(O)C(OC(CC3CCCCC3)C(=O)O)C2NC(C)=O)C1OC1OC(C)C(O)C(O)C1O (centres unmarked) [Compound 15]  6 nM
12. CCC1CC(C(=O)NCCNC(=O)CCOCCOCCOCCOCCOCCOCCC(=O)NCCNC(=O)C2CC(CC)C(OC3OC(C)C(O)C(O)C3O)C(OC3OC(CO)C(O)C(OC(CC4CCCCC4)C(=O)O)C3NC(C)=O)C2)CC(OC2OC(CO)C(O)C(OC(CC3CCCCC3)C(=O)O)C2NC(C)=O)C1OC1OC(C)C(O)C(O)C1O (centres unmarked) [Compound 16]  6 nM
13. CCC1CC(C(=O)NCCNC(=O)CCOCCOCCOCCOCCOCCOCCOCCOCCOCCOCCOCCOCCOCCC(=O)NCCNC(=O)C2CC(CC)C(OC3OC(C)C(O)C(O)C3O)C(OC3OC(CO)C(O)C(OC(CC4CCCCC4)C(=O)O)C3NC(C)=O)C2)CC(OC2OC(CO)C(O)C(OC(CC3CCCCC3)C(=O)O)C2NC(C)=O)C1OC1OC(C)C(O)C(O)C1O (centres unmarked) [Compound 14]  6.6 nM
14. CC[C@H]1C[C@@H](C(=O)NCCNC(=O)c2cn(CCOCCOCCOCCn3cc(C(=O)NCCNC(=O)[C@@H]4C[C@H](CC)[C@@H](O[C@@H]5O[C@@H](C)[C@@H](O)[C@@H](O)[C@@H]5O)[C@H](O[C@@H]5O[C@H](CO)[C@H](O)[C@H](O[C@@H](CC6CCCCC6)C(=O)O)[C@H]5NC(C)=O)C4)nn3)nn2)C[C@@H](OC2O[C@H](CO)[C@H](O)[C@H](O[C@@H](CC3CCCCC3)C(=O)O)[C@H]2NC(C)=O)[C@@H]1OC1O[C@@H](C)[C@@H](O)[C@@H](O)[C@@H]1O (some centres unmarked) [Compound 27]  8.6 nM
15. CC[C@H]1C[C@@H](C(=O)NCCNC(=O)NCCNC(=O)[C@@H]2C[C@H](CC)[C@@H](O[C@@H]3O[C@@H](C)[C@@H](O)[C@@H](O)[C@@H]3O)[C@H](O[C@@H]3O[C@H](CO)[C@H](O)[C@H](O[C@@H](CC4CCCCC4)C(=O)O)[C@H]3NC(C)=O)C2)C[C@@H](OC2O[C@H](CO)[C@H](O)[C@H](O[C@@H](CC3CCCCC3)C(=O)O)[C@H]2NC(C)=O)[C@@H]1OC1O[C@@H](C)[C@@H](O)[C@@H](O)[C@@H]1O (some centres unmarked) [Compound 32]  8.8 nM
16. CC[C@H]1C[C@@H](C(=O)NCCNC(=O)CCC(=O)NCCNC(=O)C2C[C@H](CC)[C@@H](O[C@@H]3O[C@@H](C)[C@@H](O)[C@@H](O)[C@@H]3O)[C@H](O[C@@H]3O[C@H](CO)[C@H](O)[C@H](O[C@@H](CC4CCCCC4)C(=O)O)[C@H]3NC(C)=O)C2)C[C@@H](OC2O[C@H](CO)[C@H](O)[C@H](O[C@@H](CC3CCCCC3)C(=O)O)[C@H]2NC(C)=O)[C@@H]1O[C@@H]1O[C@@H](C)[C@@H](O)[C@@H](O)[C@@H]1O (some centres unmarked) [Compound 19]  10.2 nM
17. CCC1CC(C(=O)OC)C[C@@H](O[C@@H]2O[C@@H](CO)[C@H](O)C(O[C@@H](CC3CCCCC3)C(=O)N3CCC3)C2NC(C)=O)[C@@H]1O[C@@H]1OC(C)[C@@H](O)[C@H](O)C1O (some centres unmarked) [Compound 4]  2600 nM
